The values that follow come from patent publication US20250345468A1, “COMBINATION TREATMENT OF SMALL-CELL LUNG CANCER” (ITM ISOTOPE TECHNOLOGIES MUNICH SE, priority 2022, published 2025).

One data set has as its system H69 SCLC cells. Description: Tumor growth delay and survival, H69 xenograft mouse model. As to conditions: PARP inhibitor alone.
A further data set concerns H69 cells. The data set is described as follows: Cell viability (IC50) assay in H69 SCLC cells. The format is cell-based, human. The source says:
FIG. 3A: Determination of the IC50 values of Rucaparib in the H446 and H69 cell lines. FIG. 3B: H446, FIG. 3C: H69 cell lines. Cell viability was studied upon combined cell treatment with Olaparib and ^177Lu-DOTA-TOC vs. ^177Lu-DOTA-TOC alone.
(§1) FIG. 1A). […] At such concentrations, neither Rucaparib nor ^177Lu-DOTATOC, respectively, alone have any major impact on cell viability. The activity required for ^177Lu-DOTATOC to reduce cell viability to 50% by H446 cells in the combination treatment was reduced by a factor of 10 (5 μM Rucaparib) to 22 (20 μM Rucaparib).
(§2) Further evidence for such a synergistic effect was collected by analogous viability assays employing other PARP inhibitors, such as Olaparib and Talazoparib, in combination with ^177Lu-DOTATOC. The applied PARP inhibitor concentrations for combination therapy was adjusted depending on their individual cytotoxicity. […] That finding was proven in all cell lines.

A further data set relates to H446 cells. Description: Cell viability (IC50) assay in H446 SCLC cells. Format: cell-based, human. As for the experimental part:
FIG. 1A: H446 and H69 cells treated with increasing concentrations of Rucaparib. […] (IC50 values: ^177Lu-DOTA-TOC: 8.9 kBq, ^177Lu-DOTATOC and 5 μM Rucaparib: 0.9 kBq, ^177LU-DOTATOC and 20 μM Rucaparib; 0.4 kBq)
as §1, §2

For the next data set, the system named is PARP. The note with it: cited from earlier work.
In data set [1] the test system is SSTR2. Description: in vivo. Also noted: species or system athymic nude mice. The note with it: athymic nude, mouse, 10 MBq. As for the experimental part:
(§3) H446 and H69 as SSTR2 expressing SCLC cell lines were subcutaneously inoculated into mice to establish a mouse xenograft model. The results were obtained from PET scans. […] By control experiments, the tumors were blocked with non-radioactive (non-labelled) DOTATOC (octreotide) for comparative reasons (“w/Block”).
(§4) Tumor accumulation of ^68Ga-DOTATOC (10 MBq) was evaluated in SCLC xenograft mouse model by subcutaneous inoculation of 2-3 mio SSTR2 expressing H446 and H69 cells, respectively, into athymic nude mice. The results (obtained from PET scans) shown in FIG. 8 reveal a visible uptake of ^68Ga-DOTATOC in the tumor after 4 hours p.i.

The subject of data set [2] is SSTR2. Description: in vivo. Further details: species or system athymic nude mice. As to conditions: athymic nude, mouse, 10 MBq. As for the experimental part: as §3, §4
This is another data set of the same source.

Data set [3] deals with SSTR2 expressing H69 cells. The data set is described as follows: in vivo. As to conditions: mouse. Further details: species or system athymic nude mice. Here is the method:
as §3, §4

pIC50: −log10 of the molar value.

For `O=C(c1cc(Cc2n[nH]c(=O)c3ccccc23)ccc1F)N1CCN(C(=O)C2CC2)CC1` [Olaparib], the “Anti-cancer effect of single therapy” value in the data set on H69 SCLC cells is on record as “did not result in major anti-cancer effects”.

In general, pIC50 refers to −log10 of the IC50, conventionally taken in molar units. For the molecule `CNCc1ccc(-c2[nH]c3cc(F)cc4c3c2CCNC4=O)cc1` [Rucaparib], the Cell viability entry in the data set on H69 cells (20 μM Rucaparib alone) and in the data set on H446 cells (20 μM Rucaparib alone) was “slightly reduced” throughout. Moreover, the negative-log IC50 (pIC50) is 4.44 in the data set with H69 cells (Homo sapiens, NCI-H69, Rucaparib alone) and 4.49 with H446 cells (Homo sapiens, NCI-H446, Rucaparib alone). Further, in the data set on H69 SCLC cells, the “Anti-cancer effect of single therapy” value is “did not result in major anti-cancer effects”.

As to `Cn1ncnc1[C@H]1c2n[nH]c(=O)c3cc(F)cc(c23)N[C@@H]1c1ccc(F)cc1` [Talazoparib], the “Potency relative to olaparib” value with PARP is listed as “about 100 times”.

For orientation: tissue uptake means the percentage of the injected dose found per gram of tissue. With `C[C@@H](O)[C@@H]1NC(=O)[C@H](CCCCN)NC(=O)[C@@H](Cc2c[nH]c3ccccc23)NC(=O)[C@H](Cc2ccc(O)cc2)NC(=O)[C@@H](NC(=O)[C@@H](Cc2ccccc2)NC(=O)CN2CCN(CC(=O)O)CCN(CC(=O)O)CCN(CC(=O)O)CC2)CSSC[C@@H](C(=O)N[C@H](CO)[C@@H](C)O)NC1=O` [^68Ga-DOTATOC, ^68Ga-DOTA-D-Phe-cyclo(Cys-Tyr-D-Trp-Lys-Thr-Cys)Thr(ol), metal not drawn], the tissue uptake at 4 h with SSTR2 [1] and in the data set on SSTR2 [2] was 1 to 3 %ID/g throughout. In data set [3], the “Uptake in H69 cells relative to H446 cells” value is around 2 fold.
